From ChEMBL document CHEMBL3397012, “Synthesis and biological evaluation of 4-nitroindole derivatives as 5-HT2A receptor antagonists” (Bioorg Med Chem, 2015) come the findings set out here.

The target of assay [1] is T1, 5-hydroxytryptamine receptor 2A (Homo sapiens, UniProt P28223). The assay can be described thus: Displacement of [3H]Ketanserin from human recombinant 5-HT2A receptor expressed in CHO-K1 cells at 10 uM after 15 mins. It counts as cell-based.
In assay [2] the target is T2, 5-hydroxytryptamine receptor 2C (Homo sapiens, UniProt P28335).
T2 sequence (P28335 whole entry): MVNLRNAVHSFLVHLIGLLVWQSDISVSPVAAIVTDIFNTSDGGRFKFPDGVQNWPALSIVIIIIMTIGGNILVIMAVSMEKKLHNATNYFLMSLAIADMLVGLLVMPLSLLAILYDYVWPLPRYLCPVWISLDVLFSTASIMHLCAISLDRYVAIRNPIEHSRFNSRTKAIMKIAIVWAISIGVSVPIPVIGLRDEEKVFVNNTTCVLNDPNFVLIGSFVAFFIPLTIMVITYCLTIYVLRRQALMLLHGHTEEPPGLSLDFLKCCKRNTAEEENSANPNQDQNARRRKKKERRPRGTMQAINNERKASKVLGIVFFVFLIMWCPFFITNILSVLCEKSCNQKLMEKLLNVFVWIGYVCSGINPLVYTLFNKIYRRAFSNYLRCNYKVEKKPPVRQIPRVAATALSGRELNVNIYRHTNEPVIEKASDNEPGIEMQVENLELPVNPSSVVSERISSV
The assay can be described thus: Displacement of [3H]Mesulergine from human recombinant 5-HT2C receptor expressed in CHO-K1 cells after 15 mins. It counts as cell-based. (In general: Loss of bound radioactivity is the signal in a displacement assay; it reports binding, not function.)

Assay [3] addresses T1, 5-hydroxytryptamine receptor 2A. Briefly: Displacement of [3H]Ketanserin from human recombinant 5-HT2A receptor expressed in CHO-K1 cells after 15 mins. It counts as cell-based.
In assay [4] the target is T3, 5-hydroxytryptamine receptor 6 (Homo sapiens, UniProt P50406). The assay can be described thus: Inhibition of human recombinant 5-HT6 receptor expressed in HEK293 cells assessed as inhibition of 5-HT-induced increase in […] pretreated at 10 uM for 10 mins by cAMP accumulation assay. It counts as functional, cell-based.
T3 sequence (P50406 whole entry): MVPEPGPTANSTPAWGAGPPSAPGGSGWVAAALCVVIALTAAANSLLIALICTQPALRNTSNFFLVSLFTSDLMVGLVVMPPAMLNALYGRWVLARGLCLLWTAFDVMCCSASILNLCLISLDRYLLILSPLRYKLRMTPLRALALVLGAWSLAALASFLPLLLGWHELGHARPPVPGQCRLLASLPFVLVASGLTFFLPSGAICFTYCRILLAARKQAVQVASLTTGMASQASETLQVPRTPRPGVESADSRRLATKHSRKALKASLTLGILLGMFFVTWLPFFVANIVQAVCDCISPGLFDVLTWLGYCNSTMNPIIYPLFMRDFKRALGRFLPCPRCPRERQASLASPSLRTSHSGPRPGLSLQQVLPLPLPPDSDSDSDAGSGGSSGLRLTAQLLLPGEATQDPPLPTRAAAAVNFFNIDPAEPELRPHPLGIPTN
Assay [5] deals with T4, 5-hydroxytryptamine receptor 2C (Homo sapiens) (UniProt P28335).
T4 sequence (whole entry): T2 sequence (P28335 whole entry)
Briefly: Displacement of [3H]Mesulergine from human recombinant 5-HT2C receptor expressed in CHO-K1 cells at 10 uM after 15 mins. It counts as cell-based.

Assay [6] has as its target T3, 5-hydroxytryptamine receptor 6. Briefly: Inhibition of human recombinant 5-HT6 receptor expressed in HEK293 cells assessed as inhibition of 5-HT-induced increase in […] pretreated for 10 mins by cAMP accumulation assay. It counts as functional, cell-based.

T1 sequence (P28223 whole entry): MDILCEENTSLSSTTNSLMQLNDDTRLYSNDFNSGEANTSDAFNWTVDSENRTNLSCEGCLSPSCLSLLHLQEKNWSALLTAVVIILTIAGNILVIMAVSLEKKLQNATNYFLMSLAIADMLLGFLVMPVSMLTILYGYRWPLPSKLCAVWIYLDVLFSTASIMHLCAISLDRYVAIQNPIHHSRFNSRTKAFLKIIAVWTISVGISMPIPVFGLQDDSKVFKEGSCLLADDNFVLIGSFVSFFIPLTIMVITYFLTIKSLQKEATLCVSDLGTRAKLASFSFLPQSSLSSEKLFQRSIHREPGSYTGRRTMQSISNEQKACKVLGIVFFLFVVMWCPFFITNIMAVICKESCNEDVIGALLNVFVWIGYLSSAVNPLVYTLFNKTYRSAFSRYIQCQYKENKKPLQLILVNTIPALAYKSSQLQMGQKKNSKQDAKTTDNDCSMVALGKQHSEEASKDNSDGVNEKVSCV

As a reminder, the inhibition is the percentage by which the read-out fell short of the control. Broadly, the IC50 is the concentration that inhibits the measured activity by half. Take `COc1ccc(S(=O)(=O)n2cc(/C=N/N=C/N(C)C)c3c([N+](=O)[O-])cccc32)cc1`: the inhibition in assay [1] is 90.7%; in assay [4], 78.6%; in assay [5] it was 67.8%. Moreover, the values for the IC50 in assay [2], in assay [3] and in assay [6] were 1040 nM, 205 nM and 740 nM, respectively.

Turning to `CN1CCN(c2nc3ccc(NS(=O)(=O)c4cccc5ccccc45)cc3s2)CC1`, the IC50 in assay [6] is 3900 nM.

As to `CN(C)/C=N/N=C/c1cn(S(=O)(=O)c2cccc3ccccc23)c2cccc([N+](=O)[O-])c12`, the inhibition was 94.6% in assay [1], 73.9% in assay [4] and 64.2% in assay [5]. For the same compound, the results for the half-maximal inhibitory concentration (IC50) in assay [3] and in assay [6] were 555 nM and 2960 nM, respectively.

For `CN(C)/C=N/N=C/c1cn(S(=O)(=O)c2ccccc2)c2cccc([N+](=O)[O-])c12`, the inhibition came out at 83.9% in assay [1], 78.1% in assay [4] and 48.4% in assay [5]. For the same compound, the IC50 was determined as 329 nM in assay [3] and 1830 nM in assay [6].

As for `CCCCc1ccc(S(=O)(=O)n2cc(/C=N/N=C/N(C)C)c3c([N+](=O)[O-])cccc32)cc1`, in assay [4], the inhibition is 11.3%.

As to `Cc1ccc(S(=O)(=O)n2cc(/C=N/N=C/N(C)C)c3c([N+](=O)[O-])cccc32)cc1`, the inhibition was 88.3% in assay [1], 75.2% in assay [4] and 82.3% in assay [5]. Further, the IC50 in assay [2] came out at 480 nM; in assay [3], 253 nM; in assay [6], 2120 nM.

Take `CN(C)/C=N/N=C/c1cn(S(=O)(=O)c2ccc(F)cc2)c2cccc([N+](=O)[O-])c12`: the inhibition in assay [1] came to 94.2%; in assay [4], 63.9%; in assay [5], 55.5%. Further, the values for the IC50 in assay [3] and in assay [6] were 702 nM and 4970 nM, respectively.

As to `COc1ccc(OC)c(S(=O)(=O)n2cc(/C=N/N=C/N(C)C)c3c([N+](=O)[O-])cccc32)c1`, the inhibition in assay [1] was 84.4%; in assay [4] it was 78.2%; in assay [5] it was 48.1%. For the same compound, the IC50 in assay [3] is 479 nM; in assay [6], 1400 nM.

For `CN(C)/C=N/N=C/c1cn(S(=O)(=O)c2ccc(I)cc2)c2cccc([N+](=O)[O-])c12`, the inhibition was 85.2% in assay [1], 62.4% in assay [4] and 66.2% in assay [5]. In addition, the half-inhibitory concentration (IC50) in assay [3] stood at 247 nM; in assay [6], 6340 nM.

Take `COc1ccc(Cl)cc1S(=O)(=O)n1cc(/C=N/N=C/N(C)C)c2c([N+](=O)[O-])cccc21`: the figures for the inhibition in assay [1], in assay [4] and in assay [5] were 75.9%, 87.7% and 44.9%, respectively. Also, the IC50 in assay [3] is 1590 nM; in assay [6], 2440 nM.

For `CN(C)/C=N/N=C/c1cn(S(=O)(=O)c2ccc3ccccc3c2)c2cccc([N+](=O)[O-])c12`, the inhibition in assay [1] is 88%; in assay [4], 68%; in assay [5], 80.1%. Moreover, the IC50 in assay [2] turned out to be 463 nM; in assay [3] it was 433 nM; in assay [6] it was 2530 nM.
